These results are taken from patent US11229636B2, “Substituted tetrahydroquinolinone compounds as ROR gamma modulators” (Aurigene Discovery Technologies Limited, priority 2015, dated 2022).

Molecules are shown by their SMILES.

Test [1] concerns EL-4 murine lymphoma cell line. Particulars: cited from earlier work.
In test [2] the target is ROR gamma ligand binding domain (Homo sapiens (Human), UniProt P51449). Put plainly: ROR gamma luciferase reporter assay (GAL4-ROR gamma LBD, HEK293 cells). The test is classed as cell-based. Particulars: 48 hours treatment, read-out: RORγ luciferase Reporter assay: IC50 (nM) (in range). Put shortly:
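HEK293 cells were co-transfected with a GAL4 DBD–RORγ LBD fusion (hRluc vector) and a 9xGAL4 UAS luc2P reporter, then treated with compounds for 48 h. Bright-Glo luminescence was used to derive potency.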
(In general: A reporter such as luciferase makes a cellular process visible.)

The target in the next test is RORγ LBD (Homo sapiens (Human), UniProt P51449). Put plainly: ROR gamma radio-ligand binding assay (3H 25-Hydroxycholesterol competitive displacement, dextran charcoal method). To be noted: for RORγ ligand binding assay: % inhibition @1 μM / inhibition at 1 µM: 1 μM compound; for RORγ ligand binding assay: % inhibition @ 10 μM / inhibition at 10 µM: 10 μM compound; for IC50: in range. The essentials: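 Human RORγ LBD (aa 247–497) was expressed as a GST fusion in E. coli and purified. For binding, 300 ng protein, 5 nM ³H-25-hydroxycholesterol and compound were incubated for 30 min at room temperature in 50 mM HEPES pH 7.5, 150 mM NaCl, 0.01% BSA and 5 mM MgCl2. After dextran-charcoal separation, the supernatant was counted and 10-point curves were fitted by variable-slope sigmoid.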
RORγ LBD, sequence (P51449 268-518): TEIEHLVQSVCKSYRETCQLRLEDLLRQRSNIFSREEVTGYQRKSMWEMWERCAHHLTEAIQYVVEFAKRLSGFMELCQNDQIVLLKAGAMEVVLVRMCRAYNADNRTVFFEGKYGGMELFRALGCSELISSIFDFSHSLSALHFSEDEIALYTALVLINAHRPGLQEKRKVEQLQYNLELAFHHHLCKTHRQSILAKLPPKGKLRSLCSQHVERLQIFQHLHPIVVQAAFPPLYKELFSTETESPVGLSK

ROR gamma ligand binding domain, sequence (P51449 269-508): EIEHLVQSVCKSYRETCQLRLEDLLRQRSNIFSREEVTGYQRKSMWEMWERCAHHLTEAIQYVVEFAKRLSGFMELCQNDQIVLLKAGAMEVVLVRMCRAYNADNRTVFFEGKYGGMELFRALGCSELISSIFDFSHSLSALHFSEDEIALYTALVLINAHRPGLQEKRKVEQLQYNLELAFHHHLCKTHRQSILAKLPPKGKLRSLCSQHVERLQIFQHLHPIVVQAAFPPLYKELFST

On to `OC(c1ccc(-c2ccc(CN3CCN(Cc4ccncc4)CC3)cc2)c(F)c1)(C(F)(F)F)C(F)(F)F` [SR2211], for which the “synthesis of IL-17” value in test [1] is “suppress the synthesis of IL-17”.

For orientation: IC50 means the midpoint of a concentration-inhibition curve. Turning to `CCS(=O)(=O)c1ccc(CC(=O)Nc2ccc3c(n2)CCC(C)(c2nccn4cc(C)nc24)C3=O)cc1` (single isomer, unassigned) [compound 106, 2-(4-(ethylsulfonyl)phenyl)-N-(6-methyl-6-(2-methylimidazo[1,2-a]pyrazin-8-yl)-5-oxo-5,6,7,8-tetrahydroquinolin-2-yl)acetamide], in test [2], the IC50 is over 500 nM. In addition, on RORγ LBD, the “RORγ ligand binding assay: % inhibition @1 μM” value was 70% and the “RORγ ligand binding assay: % inhibition @ 10 μM” value is listed as 1%.

What is called inhibition is how much of the control response was suppressed. A higher inhibition goes with a strong effect. Turning to `CCS(=O)(=O)c1ccc(CC(=O)Nc2cc(C)c3c(n2)CCC(C)(c2cc(OC)ccn2)C3=O)cc1` (stereo not shown) [Compound 22, 2-(4-(ethylsulfonyl)phenyl)-N-(6-(4-methoxypyridin-2-yl)-4,6-dimethyl-5-oxo-5,6,7,8-tetrahydroquinolin-2-yl)acetamide], in test [2], the IC50 lay in the range of 100 to 500 nM. At RORγ LBD, testing at 1 µM gave an inhibition of 76% and the inhibition at 10 µM worked out at 95%.

On to `CCS(=O)(=O)c1ccc(CC(=O)Nc2ccc3c(n2)CCC(C)(c2ncc(Cl)n4ccnc24)C3=O)cc1` (stereo not shown) [Compound 92, N-(6-(5-chloroimidazo[1,2-a]pyrazin-8-yl)-6-methyl-5-oxo-5,6,7,8-tetrahydroquinolin-2-yl)-2-(4-(ethylsulfonyl)phenyl)acetamide], for which the IC50 in test [2] was in the range of 100 to 500 nM. Further, at RORγ LBD, the inhibition at 1 µM came to 96%, the inhibition at 10 µM worked out at 80% and the 50% inhibitory concentration (IC50) is under 150 nM.

Turning to `CCS(=O)(=O)c1ccc(CC(=O)Nc2ccc3c(n2)CCC(C)(c2ccnc(C(C)C)n2)C3=O)cc1` (stereo not shown) [Compound 50, 2-(4-(ethylsulfonyl)phenyl)-N-(6-(2-isopropylpyrimidin-4-yl)-6-methyl-5-oxo-5,6,7,8-tetrahydroquinolin-2-yl)acetamide], in test [2], the IC50 lay in the range of 100 to 500 nM. On RORγ LBD, this compound had an inhibition at 1 µM of 91%, an inhibition at 10 µM of 90% and an IC50 of under 150 nM.

As for `CCS(=O)(=O)c1ccc(CC(=O)Nc2ccc3c(n2)CCC(C)(c2nc(C)cn4ccnc24)C3=O)cc1` (stereo not shown) [Compound 16, 2-(4-(ethylsulfonyl)phenyl)-N-(6-methyl-6-(6-methylimidazo[1,2-a]pyrazin-8-yl)-5-oxo-5,6,7,8-tetrahydroquinolin-2-yl)acetamide], the IC50 in test [2] was under 100 nM. On RORγ LBD, this compound returned an inhibition at 1 µM of 86%, an inhibition at 10 µM of 93% and an IC50 of 150 to 300 nM.

On to `CCS(=O)(=O)c1ccc(CC(=O)Nc2ccc3c(n2)CCC(C)(c2cc(C)nc(C)n2)C3=O)cc1` (stereo not shown) [Compound 7, N-(6-(2,6-dimethylpyrimidin-4-yl)-6-methyl-5-oxo-5,6,7,8-tetrahydroquinolin-2-yl)-2-(4-(ethylsulfonyl)phenyl)acetamide], for which the IC50 in test [2] lay in the range of 100 to 500 nM. At RORγ LBD, this compound came in with an inhibition at 1 µM of 91%, an inhibition at 10 µM of 100% and an IC50 of under 150 nM.

For the compound `CCS(=O)(=O)c1ccc(CC(=O)Nc2ccc3c(n2)CCC(C)(c2ncc(OC)cn2)C3=O)cc1` (single isomer, unassigned) [compound 111, 2-(4-(ethylsulfonyl)phenyl)-N-(6-(5-methoxypyrimidin-2-yl)-6-methyl-5-oxo-5,6,7,8-tetrahydroquinolin-2-yl)acetamide], in test [2], the IC50 was over 500 nM. In addition, on RORγ LBD, the “RORγ ligand binding assay: % inhibition @1 μM” value is 62%, the “RORγ ligand binding assay: % inhibition @ 10 μM” value turned out to be 19% and the IC50 was over 300 nM.

As to `CCS(=O)(=O)c1ccc(CC(=O)Nc2cc(C)c3c(n2)CCC(C)(c2ccc(OC)cn2)C3=O)cc1` (stereo not shown) [Compound 20, 2-(4-(ethylsulfonyl)phenyl)-N-(6-(5-methoxypyridin-2-yl)-4,6-dimethyl-5-oxo-5,6,7,8-tetrahydroquinolin-2-yl)acetamide], the IC50 in test [2] fell in the range of 100 to 500 nM. On RORγ LBD, this compound registered an inhibition at 1 µM of 76% and an inhibition at 10 µM of 95%.

Take `CCS(=O)(=O)c1ccc(CC(=O)Nc2ccc3c(n2)CCC(C)(c2ccc(O)nc2)C3=O)cc1` (stereo not shown) [Compound 40, 2-(4-(ethylsulfonyl)phenyl)-N-(6-(6-hydroxypyridin-3-yl)-6-methyl-5-oxo-5,6,7,8-tetrahydroquinolin-2-yl)acetamide]: the IC50 in test [2] was over 500 nM. For the same compound, at RORγ LBD, 1 µM produced 44% inhibition and at 10 µM the inhibition was 88%.

With `CCS(=O)(=O)c1ccc(CC(=O)Nc2ccc3c(n2)CCC(C)(c2nccn4cc(C)nc24)C3=O)cc1` (single isomer, unassigned) [Compound-105, 2-(4-(ethylsulfonyl)phenyl)-N-(6-methyl-6-(2-methylimidazo[1,2-a]pyrazin-8-yl)-5-oxo-5,6,7,8-tetrahydroquinolin-2-yl)acetamide], the concentration for half-maximal inhibition (IC50) in test [2] is under 100 nM. Further, at RORγ LBD, the “RORγ ligand binding assay: % inhibition @1 μM” value is on record as 100%, the “RORγ ligand binding assay: % inhibition @ 10 μM” value was found to be 97% and the IC50 was under 150 nM.

On to `CCS(=O)(=O)c1ccc(CC(=O)Nc2cc(C)c3c(n2)CCC(C)(c2ccc(C)nn2)C3=O)cc1` (stereo not shown) [Compound 34, N-(4,6-dimethyl-6-(6-methylpyridazin-3-yl)-5-oxo-5,6,7,8-tetrahydroquinolin-2-yl)-2-(4-(ethylsulfonyl)phenyl)acetamide], for which, in test [2], the IC50 was over 500 nM. For the same compound, at RORγ LBD, the inhibition at 1 µM turned out to be 74%, at 10 µM the inhibition was 97% and the IC50 was over 300 nM.

Consider `CCS(=O)(=O)c1ccc(CC(=O)Nc2ccc3c(n2)CC(C)(C)C(c2ccc(O)cn2)C3=O)cc1` (stereo not shown) [Compound 90, 2-(4-(ethylsulfonyl)phenyl)-N-(6-(5-hydroxypyridin-2-yl)-7,7-dimethyl-5-oxo-5,6,7,8-tetrahydroquinolin-2-yl)acetamide], for which, in test [2], the IC50 is over 500 nM. At RORγ LBD, this compound yielded an inhibition at 1 µM of 57%, an inhibition at 10 µM of 84% and an IC50 of 150 to 300 nM.

Regarding `CCS(=O)(=O)c1ccc(CC(=O)Nc2ccc3c(n2)CC(C)C(c2ncccc2O)C3=O)cc1` (stereo not shown) [Compound 91, 2-(4-(ethylsulfonyl)phenyl)-N-(6-(3-hydroxypyridin-2-yl)-7-methyl-5-oxo-5,6,7,8-tetrahydroquinolin-2-yl)acetamide], the IC50 in test [2] is over 500 nM. At RORγ LBD, this compound yielded an inhibition at 1 µM of 36%, an inhibition at 10 µM of 100% and an IC50 of over 300 nM.

In the case of `CCS(=O)(=O)c1ccc(CC(=O)Nc2ccc3c(n2)CCC(C)(c2nccn4cc(C)nc24)C3=O)cc1` (stereo not shown) [Compound 9, 2-(4-(ethylsulfonyl)phenyl)-N-(6-methyl-6-(2-methylimidazo[1,2-a]pyrazin-8-yl)-5-oxo-5,6,7,8-tetrahydroquinolin-2-yl)acetamide], the IC50 in test [2] was 100 to 500 nM. Further, on RORγ LBD, the inhibition at 1 µM was 90%, at 10 µM the inhibition was 100% and the IC50 was under 150 nM.

Turning to `CCS(=O)(=O)c1ccc(CC(=O)Nc2cc(C)c3c(n2)CCC(C)(c2nc(C)cc(C)n2)C3=O)cc1` (stereo not shown) [Compound 29, N-(6-(4,6-dimethylpyrimidin-2-yl)-4,6-dimethyl-5-oxo-5,6,7,8-tetrahydroquinolin-2-yl)-2-(4-(ethylsulfonyl)phenyl)acetamide], in test [2], the IC50 is under 100 nM. On RORγ LBD, the inhibition at 1 µM turned out to be 84%, the inhibition at 10 µM stood at 91% and the IC50 was in the range of 150 to 300 nM.

`CCc1ccc(C2(C)CCc3nc(NC(=O)Cc4ccc(S(=O)(=O)CC)cc4)ccc3C2=O)nn1` (stereo not shown) [Compound 41, N-(6-(6-ethylpyridazin-3-yl)-6-methyl-5-oxo-5,6,7,8-tetrahydroquinolin-2-yl)-2-(4-(ethylsulfonyl)phenyl)acetamide]: the IC50 in test [2] was over 500 nM. In addition, at RORγ LBD, the inhibition at 1 µM was found to be 47% and the inhibition at 10 µM came out at 82%.

With `CCS(=O)(=O)c1ccc(CC(=O)Nc2nc3c(cc2C)C(=O)C(C)(c2nccn4ccnc24)CC3)cc1` (stereo not shown) [Compound 11, 2-(4-(ethylsulfonyl)phenyl)-N-(6-(imidazo[1,2-a]pyrazin-8-yl)-3,6-dimethyl-5-oxo-5,6,7,8-tetrahydroquinolin-2-yl)acetamide], the IC50 in test [2] is over 500 nM. Further, at RORγ LBD, the inhibition at 1 µM was 25% and 10 µM produced 71% inhibition.

As for `CCS(=O)(=O)c1ccc(CC(=O)Nc2cc(C)c3c(n2)CCC(C)(c2cc(C)nc(C)n2)C3=O)cc1` (single isomer, unassigned) [compound 108, N-(6-(2,6-dimethylpyrimidin-4-yl)-4,6-dimethyl-5-oxo-5,6,7,8-tetrahydroquinolin-2-yl)-2-(4-(ethylsulfonyl)phenyl)acetamide], the IC50 in test [2] was over 500 nM. For the same compound, on RORγ LBD, the “RORγ ligand binding assay: % inhibition @1 μM” value was found to be 78%, the “RORγ ligand binding assay: % inhibition @ 10 μM” value is on record as 28% and the IC50 is over 300 nM.
